Experimental data published in paper PMC10914731, “Homo-BacPROTAC-induced degradation of ClpC1 as a strategy against drug-resistant mycobacteria” (Nature Communications, 2024).
Several values for one entry are separate records, joined by “and”; a condition that tells them apart may be missing. Equal entries are not always repeated. Where two headings read alike, the source gives them in different places. *1 amine or outer side, *2 acyl side, *3 side chain or, on linkers, in order; H or OH if unused. Where a SMILES comes first, the peptide text is derived from it. Bridges are numbered along the chain shown (N, C = ends). Roman numbers before positions name the chains, in order. [ ]: non-standard residue; d: D form. X6 = O=C([C@@H](N[*:1])[C@H](OCC=[*:3])c1ccccc1)[*:2]; NMeLeu(5-OH,4R) = CN[C@@H](C[C@@H](C)CO)C(=O)O; Trp(1-Me) = Cn1cc(C[C@H](N)C(=O)O)c2ccccc21; NMeL = CN[C@@H](CC(C)C)C(=O)O

How the values were obtained:
[1] = biological target: ClpC1 NTD protein (M. tuberculosis) (Mycobacterium tuberculosis, UniProt P9WPC9); test: biochemical; format: binding
Chain of ClpC1 NTD protein (M. tuberculosis) (P9WPC9 1-156, looked up, natural form): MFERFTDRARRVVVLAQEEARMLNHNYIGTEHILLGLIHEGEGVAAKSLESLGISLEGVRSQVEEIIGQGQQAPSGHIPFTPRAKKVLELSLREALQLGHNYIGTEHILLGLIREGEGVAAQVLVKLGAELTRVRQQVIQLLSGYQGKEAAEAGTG

[2] = in vitro; conditions: human
Summary of the method: (§1)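 Values are bidirectional Caco-2 apparent permeabilities, P(A−B) and P(B−A), given in 10^-6 cm s-1. The efflux ratio divides P(B−A) by P(A−B), and intrinsic permeability averages the two directions.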

[3] = tested on: Caco-2 monolayers; test: in vitro; conditions: mean value of P(A−B) and P(B−A)
Summary of the method: as §1

[4] = format: in vitro ADME, Mice
Summary of the method: (§2)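 Clearance, expressed as % liver blood flow (%Qh), derived by the well-stirred model from first-order half-lives. Depletion monitored by HPLC-MS/MS in acetonitrile-stopped samples over time; 37 °C, NADPH 1 mM, microsomes 0.5 mg/ml, compound 1 µmol/l, Tris-HCl pH 7.5 with MgCl2.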

[5] = format: in vitro ADME, Rat
Summary of the method: as §2

[6] = Microsomal stability, human; format: in vitro ADME
Summary of the method: as §2

[7] = Hepatocyte stability, mice; format: in vitro ADME
Summary of the method: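 Cryopreserved mouse hepatocytes (about 1 million cells/mL, pH 7.4, 50% species serum) incubated with 1 µM compound, DMSO <0.05%, at 37 °C for up to 6 h, sampled at 6 time points. Parent remaining measured by HPLC-MS/MS; half-life converted via well-stirred liver model to clearance as % Qh.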

[8] = format: in vitro ADME, Rat; remark: listed apart in the source
[9] = biological target: His6-tagged ClpC1-NTD substrate, M. smegmatis ClpC1P1P2 (UniProt A0R574+P9WPC9); test: biochemical; format: biochemical; conditions: Msm; Measurement 1-6; read-out: 1-Dmax, single measurements
Chain of His6-tagged ClpC1-NTD substrate, M. smegmatis ClpC1P1P2 (P9WPC9 1-156, looked up, natural form): as above
Chain of His6-tagged ClpC1-NTD substrate, M. smegmatis ClpC1P1P2 (A0R574 whole entry): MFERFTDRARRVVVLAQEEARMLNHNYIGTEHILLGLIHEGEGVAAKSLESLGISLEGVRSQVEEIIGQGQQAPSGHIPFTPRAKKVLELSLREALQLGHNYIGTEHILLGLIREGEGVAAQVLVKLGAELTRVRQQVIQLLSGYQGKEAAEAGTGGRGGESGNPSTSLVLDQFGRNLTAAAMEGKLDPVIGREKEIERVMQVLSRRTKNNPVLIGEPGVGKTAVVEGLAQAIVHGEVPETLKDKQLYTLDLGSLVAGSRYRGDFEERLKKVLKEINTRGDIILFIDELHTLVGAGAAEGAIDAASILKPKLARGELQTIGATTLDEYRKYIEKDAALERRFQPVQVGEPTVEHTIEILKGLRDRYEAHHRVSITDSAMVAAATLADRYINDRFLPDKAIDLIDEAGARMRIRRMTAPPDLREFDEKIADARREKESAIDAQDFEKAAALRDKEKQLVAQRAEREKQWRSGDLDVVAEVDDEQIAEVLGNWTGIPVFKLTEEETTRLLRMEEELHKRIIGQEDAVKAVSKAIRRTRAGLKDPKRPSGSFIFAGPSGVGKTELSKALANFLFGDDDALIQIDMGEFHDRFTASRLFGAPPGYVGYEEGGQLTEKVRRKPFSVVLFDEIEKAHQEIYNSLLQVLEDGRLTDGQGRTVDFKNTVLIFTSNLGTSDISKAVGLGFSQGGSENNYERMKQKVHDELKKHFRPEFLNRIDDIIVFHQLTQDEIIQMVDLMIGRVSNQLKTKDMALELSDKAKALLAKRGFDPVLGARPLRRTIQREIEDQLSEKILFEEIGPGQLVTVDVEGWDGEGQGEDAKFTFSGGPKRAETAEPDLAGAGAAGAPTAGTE

[10] = biological target: ClpC1-NTD substrate, M. tuberculosis ClpC1P1P2 (Mycobacterium tuberculosis, UniProt P9WPC9); test: biochemical; format: biochemical; conditions: Mtb
Chain of ClpC1-NTD substrate, M. tuberculosis ClpC1P1P2 (P9WPC5 whole entry): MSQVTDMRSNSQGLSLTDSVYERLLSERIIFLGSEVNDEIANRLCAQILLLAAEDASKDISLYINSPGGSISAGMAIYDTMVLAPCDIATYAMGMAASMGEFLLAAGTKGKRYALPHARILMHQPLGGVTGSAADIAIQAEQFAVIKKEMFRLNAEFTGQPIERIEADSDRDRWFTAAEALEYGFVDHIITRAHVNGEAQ
Chain of ClpC1-NTD substrate, M. tuberculosis ClpC1P1P2 (P9WPC9 whole entry): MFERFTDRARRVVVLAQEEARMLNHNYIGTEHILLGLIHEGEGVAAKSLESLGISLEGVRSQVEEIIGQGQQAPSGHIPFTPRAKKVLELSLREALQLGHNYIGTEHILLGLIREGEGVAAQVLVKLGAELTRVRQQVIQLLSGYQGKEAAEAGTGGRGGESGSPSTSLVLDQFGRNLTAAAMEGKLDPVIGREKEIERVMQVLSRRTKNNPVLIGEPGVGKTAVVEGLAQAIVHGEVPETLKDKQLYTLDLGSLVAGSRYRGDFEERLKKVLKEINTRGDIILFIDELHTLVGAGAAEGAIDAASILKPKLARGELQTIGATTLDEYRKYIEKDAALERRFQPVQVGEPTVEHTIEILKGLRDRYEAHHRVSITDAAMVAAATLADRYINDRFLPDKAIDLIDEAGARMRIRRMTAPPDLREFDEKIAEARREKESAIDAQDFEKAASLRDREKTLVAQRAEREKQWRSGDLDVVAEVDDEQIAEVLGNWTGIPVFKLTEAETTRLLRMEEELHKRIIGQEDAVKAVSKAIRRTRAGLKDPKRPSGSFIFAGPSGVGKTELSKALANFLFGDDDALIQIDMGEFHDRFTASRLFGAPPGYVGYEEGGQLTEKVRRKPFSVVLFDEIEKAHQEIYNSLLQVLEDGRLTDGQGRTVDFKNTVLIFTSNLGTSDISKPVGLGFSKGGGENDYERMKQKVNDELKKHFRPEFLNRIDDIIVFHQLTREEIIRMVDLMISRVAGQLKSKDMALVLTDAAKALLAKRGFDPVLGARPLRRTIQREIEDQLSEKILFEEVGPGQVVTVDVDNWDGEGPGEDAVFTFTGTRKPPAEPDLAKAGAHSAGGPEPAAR
Chain of ClpC1-NTD substrate, M. tuberculosis ClpC1P1P2 (P9WPC3 whole entry, further chain): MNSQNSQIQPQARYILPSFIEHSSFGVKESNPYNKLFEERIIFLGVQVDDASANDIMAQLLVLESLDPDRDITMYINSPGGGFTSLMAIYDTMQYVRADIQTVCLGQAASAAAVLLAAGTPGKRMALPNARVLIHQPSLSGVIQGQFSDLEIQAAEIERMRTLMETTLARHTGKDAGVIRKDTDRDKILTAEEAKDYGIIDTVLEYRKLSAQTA

[11] = result in words

## CC(C)C[C@H]1C(=O)N[C@@H](C(C)C)C(=O)N[C@@H](Cc2cn(C)c3ccccc23)C(=O)N(C)[C@@H](C[C@@H](C)CO)C(=O)N[C@@H](C)C(=O)N[C@@H]([C@H](OC/C=C/CO[C@H](c2ccccc2)[C@@H]2NC(=O)[C@H](C)NC(=O)[C@H](C[C@@H](C)CO)N(C)C(=O)[C@H](Cc3cn(C)c4ccccc34)NC(=O)[C@H](C(C)C)NC(=O)[C@H](CC(C)C)N(C)C(=O)[C@H](C(C)C)NC2=O)c2ccccc2)C(=O)N[C@@H](C(C)C)C(=O)N1C [Compound 17] (I: cyclo(A[X6]V[NMeL]V[Trp(1-Me)][NMeLeu(5-OH,4R)]) / II: cyclo(A[X6]V[NMeL]V[Trp(1-Me)][NMeLeu(5-OH,4R)]); staple (E) I:2-II:2)
[1]; SPR (Supplementary Table 1), read-out: KD ClpC1-NTD Mean ± SD
  Kd: 23 ± 5 nM
[1]; SPR, single independent measurements
  koff ClpC1-NTD: 0.004 s⁻¹
[1]; SPR, single independent measurements, read-out: KD ClpC1-NTD
  Kd: 26.7 nM and 19 nM
[1]; SPR, single independent measurements, read-out: koff ClpC1-NTD
  koff: 0.005 s⁻¹
[2]; Caco-2, CACO permeability PEAB, apical to basolateral
  Papp A→B: < 2.5 ×10⁻⁶ cm/s
[2]; Caco-2, Caco-2 permeability P (B-A), basolateral to apical
  Papp B→A: 0.9 ×10⁻⁶ cm/s
[3]
  Caco-2 Int. Perm: 1.7 10-6 cm s-1
[4]; Mouse
  Microsomal Stability Mouse QH: <24.200%
[4]; clearance in microsomes
  Microsomal Stability Mice: < 24 %Qh
[5]; Rat
  Microsomal Stability Rat QH: <23.100%
[5]; clearance in microsomes
  Microsomal Stability Rat: < 23 %Qh
[6]; Human
  Microsomal Stability Human QH: <24.400%
[6]; clearance in microsomes
  Microsomal Stability Human: < 24 %Qh
[7]; Mouse
  Hepatocyte Stability Mouse QH: 20.539%
[7]; clearance in hepatocytes
  Hepatocyte Mice: 21 %Qh
[8]; Rat
  Hepatocyte Stability Rat QH: 12.036%
[8]; clearance in hepatocytes
  Hepatocyte Rat: 12 %Qh
[9]
  1-Dmax (percent substrate remaining at maximal degradation): 30.2%
[10]; Measurement 1-4, read-out: DC50, single measurements
  DC50: > 100000 nM
[10]; mean of the measurements, read-out: DC50, Mean
  DC50: > 100000 nM
[11]
  stability upon storage: compound decomposition upon storage
